Values quoted from earlier work in patent publication US20120016021A1, “METHODS OF TREATING FRAGILE X SYNDROME, DOWN'S SYNDROME, AUTISM AND RELATED DISORDERS” (XENOPORT, INC., priority 2010, published 2012).

Assays:
[1] = administered orally
Fmr1 KO mice = details: low doses (1 mg/kg), audiogenically induced seizures
[2] = animal models

In the case of `Cc1nc2n(c(=O)c1CCN1CCC(c3noc4cc(F)ccc34)CC1)CCCC2` [risperidone], the “social isolation and communication” value (autistic children) is given as “not improved” and the “irritability subscale of the Aberrant Behavior Checklist and Clinical Global Impressions-Improvement” value (autistic children; placebo-controlled) is given as “significant improvement”.

For `NCC(CC(=O)O)c1ccc(Cl)cc1` (racemic) [baclofen, 4-amino-3-(4-chlorophenyl)butanoic acid], the elimination half-life [1] is given as 3 to 4 h, the locomotor activity (Fmr1^/− animals; baclofen at 3 mg/kg, Fmr1^/− animals) is given as “inhibits locomotor activity” and the “dose needed for comparable locomotor suppression in animals reared by Fmr1^+/+ mothers versus Fmr1^/− animals” value (Fmr1^/− animals; relative to 3 mg/kg) is given as 2 fold. For the same compound, the seizure incidence (Fmr1 KO mice) was “significantly inhibits seizure incidence” and the “absorption following administration into the colon” value [2] was “poorly absorbed”.
